# Experimental data reported in patent publication US5149845A, “Extractants for the separation of transition and related metal ions” (Yeda Research and Development Co. Ltd., priority 1988, dated 1992).
# Key:
# [1] = octanol saline (1:1) partition; format: physicochemical; conditions: read-out: Partition Coefficients (converted)
# Description: Partition coefficients relate to octanol saline (1:1) partition
# [2] = removal of Cu^2+ from an equimolar mixture of Cu^2+ and Fe^3+; conditions: 3 mM each Cu^2+ and Fe^3+, 6 mM citric acid, pH 6.8 with KOH; 4.5 mM carrier in chloroform; receiver 3 mM DTPA at pH 2
# Procedure: A third example is the removal of Cu^2+ from an equimolar mixture of Cu^2+ and Fe^3+ (3 mM each in the presence of 6 mM citric acid titrated to pH 6.8 with KOH) with less than 10% contamination of Fe^3+, by using a carrier (n=2, m=0, q=0, R^1 =CH3) 4.5 mM concentration in chloroform and in the receiver phase 3 mM DTPA at pH2.
# [3] = selective extraction and transport from an equimolar mixture of six bivalent metal ions through a CHCl3 bulk membrane (U-tube, ion chromatography)
# Procedure: Several of the ion binders, when incorporated into bulk membranes, selectively extract and transport a specific metal ion from a plurality of cations. An example is the quantitative separation of Cu^2+ from a mixture of six two-valent metal ions. This is illustrated by the quantitative removal of Cu^2+ from an equimolar mixture (10 mM each) of Pb^2+, Cu^2+, Cd^2+, Co^2+, Zn^2+ and Ni^2+ in water.
# [4] = removal of Zn^2+ from an equimolar mixture of Zn^2+ and Cd^2+ (ion chromatography); conditions: 20 mM each Zn^2+ and Cd^2+; 3.0 mM carrier in chloroform
logP [1],Compound,other results
0.568,CC(C)CC(NC(=O)COCC(C)(C)COCC(=O)NC(CC(C)C)C(=O)N(C)O)C(=O)N(C)O (stereo not drawn),–
0.29,"CCCC(C)(COCC(=O)N(C)O)COCC(=O)N(C)O [q = 0, n=1, R^1=Me, R^2=Me, R^3=Pr]",–
-0.0862,"CN(O)C(=O)CCOCC(C)(C)COCCC(=O)N(C)O [q = 0, n=2, R^1=Me, R^2=Me, R^3=Me]",contamination of Fe^3+ on removal of Cu^2+ [2]: less than 10%
0.352,"CN(O)C(=O)COCC(C)(C)COCC(=O)N(C)O [q = 0, n=1, R^1=M, R^2=Me, R^3=Me]",–
0.5,CCOC(=O)CCN(O)C(=O)COCC(C)(C)COCC(=O)N(O)CCC(=O)OCC,–
0.29,"CC(NC(=O)COCC(C)(C)COCC(=O)NC(C)C(=O)N(C)O)C(=O)N(C)O (stereo not drawn) [q = 1, n=1, R=Me, R^1=Me, R^2=Me, R^3=Me]",–

Compound,logP [1],other results
CC(C)C[C@H](NC(=O)CCOCC(C)(C)COCCC(=O)N[C@@H](CC(C)C)C(=O)N(C)O)C(=O)N(C)O,1.2,"removal of Cu^2+ from equimolar mixture ([3]; 10 mM each of Pb^2+, Cu^2+, Cd^2+, Co^2+, Zn^2+, Ni^2+ in water, 0.3 mM carrier in CHCl3, receiver 0.1 M H2SO4): quantitatively removed; contamination by other metals ([3]; 10 mM each of six metal ions, 0.3 mM carrier in CHCl3, receiver 0.1 M H2SO4, DIONEX ion chromatography): without a trace of contamination by other metals; metal content of receiver arm after extraction ([3]; after 160 hours, equimolar mixture of six cations (FIG. 1B)): containing only Cu^2+; contamination of Cd^2+ on removal of Zn^2+ [4]: without any contamination of Cd^2+"
